According to patent US5567692A, “9-[(substituted glycyl) amido)]-6-demethyl-6-deoxytetracyclines” (priority 1995, dated 1996):
Values after ≈ are worked out from the molar mass of the structure shown. Read-outs that look alike come from different tables or passages of the source.

How the values were obtained:
[1] = tested on: E. coli J3272 Tet sens; assay: MIC, agar dilution; type: cell-based; details: Escherichia coli, J3272TETSENS, 18 h
[2] = tested on: E. coli J3272 Tet C; assay: microbe, parasite or virus in culture; type: cell-based; details: Escherichia coli, J3272TETC, 18 h
[3] = tested on: E. coli UBMS 90-5; assay: microbe, parasite or virus in culture; type: cell-based; details: Escherichia coli, UBMS905, 18 h, E. coli UBMS 90-5; read-out: MIC
[4] = tested on: S. marcescens FPOR 8733; assay: MIC, agar dilution; type: cell-based; details: Serratia marcescens, FPOR8733, 18 h
[5] = tested on: Ps. aeruginosa ATCC 27853; assay: MIC, agar dilution; type: cell-based; details: Pseudomonas aeruginosa, ATCC27853, 18 h
[6] = tested on: Enterococcus 12201; assay: MIC, agar dilution; type: cell-based; details: Enterococcus, 12201, 18 h, Enterococcus 12201; read-out: MIC
[7] = tested on: E. faecalis ATCC 29212; assay: MIC, agar dilution; type: cell-based; details: Enterococcus faecalis, ATCC29212, 18 h
[8] = tested on: Staphylococcus aureus strain Smith (tetracycline sensitive); assay: Acute lethal infection in mice, S. aureus Smith; type: in vivo; details: Staphylococcus aureus, 168 h, mice, S. aureus Smith (Sens), 7 day survival, read-out: ED50
[9] = tested on: Staphylococcus aureus, (methicillin-susceptible); assay: MIC range, recent clinical and veterinary isolates; type: cell-based; details: 18 h; Staphylococcus aureus (methicillin-susceptible), [15] isolates; read-out: MIC Range
[10] = tested on: Staphylococcus Coagulase-negative, (methicillin-resistant); assay: MIC range, recent clinical and veterinary isolates; type: cell-based; details: 18 h, [16] isolates
[11] = tested on: Staphylococcus Coagulase-negative, (methicillin-susceptible); assay: MIC range, recent clinical and veterinary isolates; type: cell-based; details: 18 h, [14] isolates
[12] = tested on: Enterococcus faecalis; assay: MIC range, recent clinical and veterinary isolates; type: cell-based; details: 18 h, [10] isolates, read-out: MIC Range
[13] = tested on: Enterococcus faecium; assay: MIC range, recent clinical and veterinary isolates; type: cell-based; details: 18 h, [10] isolates, read-out: MIC Range
[14] = tested on: Enterococcus spp, (Vancomycin-resistant); assay: MIC range, recent clinical and veterinary isolates; type: cell-based; details: 18 h, [8] isolates
[15] = tested on: Streptococcus pyogenes; assay: MIC range, recent clinical and veterinary isolates; type: cell-based; details: 18 h, [10] isolates, read-out: MIC Range
[16] = tested on: Streptococcus agalactiae; assay: MIC range, recent clinical and veterinary isolates; type: cell-based; details: 18 h, [10] isolates, read-out: MIC Range
[17] = tested on: Streptococcus pneumoniae; assay: MIC range, recent clinical and veterinary isolates; type: cell-based; details: 18 h, [10] isolates, read-out: MIC Range
[18] = tested on: Listeria monocytogenes; assay: MIC range, recent clinical and veterinary isolates; type: cell-based; details: 18 h, [8] isolates
[19] = tested on: Escherichia coli; assay: MIC range, recent clinical and veterinary isolates; type: cell-based; details: 18 h, [30] isolates, read-out: MIC Range
[20] = tested on: Escherichia coli (Veterinary); assay: MIC range, recent clinical and veterinary isolates; type: cell-based; details: 18 h, [15] isolates
[21] = tested on: Shigella spp.; assay: MIC range, recent clinical and veterinary isolates; type: cell-based; details: 18 h, [14] isolates
[22] = tested on: Klebsiella pneumoniae; assay: MIC range, recent clinical and veterinary isolates; type: cell-based; details: 18 h, [10] isolates
[23] = tested on: Klebsiella oxytoca; assay: MIC range, recent clinical and veterinary isolates; type: cell-based; details: 18 h, [10] isolates, read-out: MIC Range
[24] = tested on: Citrobacter freundii; assay: MIC range, recent clinical and veterinary isolates; type: cell-based; details: [10] isolates
[25] = tested on: Citrobacter diversus; assay: MIC range, recent clinical and veterinary isolates; type: cell-based; details: Citrobacter koseri, 18 h; Citrobacter diversus, [10] isolates; read-out: MIC Range
[26] = tested on: Salmonella spp.; assay: MIC range, recent clinical and veterinary isolates; type: cell-based; details: 18 h, [11] isolates
[27] = tested on: Serratia marcescens; assay: MIC range, recent clinical and veterinary isolates; type: cell-based; details: 18 h, read-out: MIC Range
[28] = tested on: Enterobacter cloacae; assay: MIC range, recent clinical and veterinary isolates; type: cell-based; details: 18 h, [10] isolates, read-out: MIC Range
[29] = tested on: Enterobacter aerogenes; assay: MIC range, recent clinical and veterinary isolates; type: cell-based; details: Klebsiella aerogenes, 18 h; Enterobacter aerogenes, [10] isolates; read-out: MIC Range
[30] = tested on: Proteus mirabilis; assay: MIC range, recent clinical and veterinary isolates; type: cell-based; details: 18 h, [26] isolates, read-out: MIC Range
[31] = tested on: Proteus vulgaris; assay: MIC range, recent clinical and veterinary isolates; type: cell-based; details: 18 h, read-out: MIC Range
[32] = tested on: Morganella morganii; assay: MIC range, recent clinical and veterinary isolates; type: cell-based; details: 18 h, [16] isolates
[33] = tested on: Pseudomonas aeruginosa; assay: MIC range, recent clinical and veterinary isolates; type: cell-based; details: 18 h, [10] isolates, read-out: MIC Range
[34] = tested on: Xanthamonas maltophilia; assay: MIC range, recent clinical and veterinary isolates; type: cell-based; details: 18 h; Xanthamonas maltophilia, [10] isolates; read-out: MIC Range
[35] = tested on: Moraxella catarrhalis; assay: MIC range, recent clinical and veterinary isolates; type: cell-based; details: 18 h, [18] isolates, read-out: MIC Range
[36] = tested on: Neisseria gonorrhoeae; assay: MIC range, recent clinical and veterinary isolates; type: cell-based; details: 18 h, [14] isolates
[37] = tested on: Haemophilus influenzae; assay: MIC range, recent clinical and veterinary isolates; type: cell-based; details: 18 h, [15] isolates
[38] = tested on: Pasturella multocida (Veterinary); assay: MIC range, recent clinical and veterinary isolates; type: cell-based; details: 18 h, [17] isolates
[39] = tested on: Bordetella bronchiseptica (Veterinary); assay: MIC range, recent clinical and veterinary isolates; type: cell-based; details: 18 h; Bordetella bronchiseptica (Veterinary), [10] isolates; read-out: MIC Range
[40] = tested on: Bacteroides fragilis; assay: MIC range, recent clinical and veterinary isolates; type: cell-based; details: [11] isolates
[41] = tested on: Bacteroides fragilis group; assay: MIC range, recent clinical and veterinary isolates; type: cell-based; details: 18 h; Bacteroides fragilis group, [10] isolates; read-out: MIC Range
[42] = tested on: Bacteroides spp.; assay: MIC range, recent clinical and veterinary isolates; type: cell-based; details: 18 h; Bacteroides spp., [9] isolates; read-out: MIC Range
[43] = tested on: Clostridium difficile; assay: MIC range, recent clinical and veterinary isolates; type: cell-based; details: Clostridium difficile, [12] isolates
[44] = tested on: Anaerobic Gram(+)Cocci; assay: MIC range, recent clinical and veterinary isolates; type: cell-based; details: 18 h, read-out: MIC Range
[45] = tested on: Escherichia coli UBMS 90-4 (Tet M); assay: Acute lethal infection in mice, E. coli UBMS 90-4; details: in Mus musculus, iv, 168 h

CN(C)c1ccc(O)c2c1C[C@H]1C[C@H]3[C@H](N(C)C)C(O)=C(C(N)=O)C(=O)[C@@]3(O)C(O)=C1C2=O [U, Minocycline, reference compound]
MIC [1]: 1 µg/mL (≈ 2.19 µM)
MIC [2]: 1 µg/mL (≈ 2.19 µM)
MIC [3]: 1 µg/mL (≈ 2.19 µM)
MIC [4]: 4 µg/mL (≈ 8.74 µM)
MIC [5]: 8 µg/mL (≈ 17.5 µM)
MIC [6]: 8 µg/mL (≈ 17.5 µM)
MIC [7]: 2 µg/mL (≈ 4.37 µM)
ED50 ([8]; iv, Intraveneous): 0.37 mg/kg
ED50 ([8]; po, Oral): 0.74 mg/kg
MIC [9]: 0.03 to 0.12 µg/mL (≈ 0.0656 to 0.262 µM)
MIC [10]: 0.03 to 1 µg/mL (≈ 0.0656 to 2.19 µM)
MIC [11]: 0.015 to 0.25 µg/mL (≈ 0.0328 to 0.546 µM)
MIC [12]: 0.03 to 16 µg/mL (≈ 0.0656 to 35 µM)
MIC [13]: 0.03 to 16 µg/mL (≈ 0.0656 to 35 µM)
MIC [14]: 0.03 to 16 µg/mL (≈ 0.0656 to 35 µM)
MIC [15]: 0.03 to 2 µg/mL (≈ 0.0656 to 4.37 µM)
MIC [16]: 0.12 to 16 µg/mL (≈ 0.262 to 35 µM)
MIC [17]: 0.06 to 0.5 µg/mL (≈ 0.131 to 1.09 µM)
MIC [18]: 0.015 to 0.03 µg/mL (≈ 0.0328 to 0.0656 µM)
MIC [19]: 0.25 to 32 µg/mL (≈ 0.546 to 69.9 µM)
MIC [20]: 1 to 16 µg/mL (≈ 2.19 to 35 µM)
MIC [21]: 0.25 to 8 µg/mL (≈ 0.546 to 17.5 µM)
MIC [22]: 0.5 to 8 µg/mL (≈ 1.09 to 17.5 µM)
MIC [23]: 0.5 to 4 µg/mL (≈ 1.09 to 8.74 µM)
MIC Range [24]: 0.03 to 32 µg/mL
MIC [25]: 0.25 to 4 µg/mL (≈ 0.546 to 8.74 µM)
MIC [26]: 0.5 to 16 µg/mL (≈ 1.09 to 35 µM)
MIC [27]: 1 to 8 µg/mL (≈ 2.19 to 17.5 µM)
MIC [28]: 0.25 to 4 µg/mL (≈ 0.546 to 8.74 µM)
MIC [29]: 0.5 to 1 µg/mL (≈ 1.09 to 2.19 µM)
MIC [30]: 1 to 32 µg/mL (≈ 2.19 to 69.9 µM)
MIC [31]: 0.5 to 16 µg/mL (≈ 1.09 to 35 µM)
MIC [32]: 0.25 to 32 µg/mL (≈ 0.546 to 69.9 µM)
MIC [33]: 1 to 16 µg/mL (≈ 2.19 to 35 µM)
MIC [34]: 0.12 to 1 µg/mL (≈ 0.262 to 2.19 µM)
MIC [35]: 0.03 to 0.12 µg/mL (≈ 0.0656 to 0.262 µM)
MIC [36]: 0.5 to 64 µg/mL (≈ 1.09 to 140 µM)
MIC [37]: 0.5 to 2 µg/mL (≈ 1.09 to 4.37 µM)
MIC [38]: 0.015 to 4 µg/mL (≈ 0.0328 to 8.74 µM)
MIC [39]: 0.06 to 0.12 µg/mL (≈ 0.131 to 0.262 µM)
MIC Range [40]: <8 to 16000 ng/mL
MIC [41]: 0.008 to 4 µg/mL (≈ 0.0175 to 8.74 µM)
MIC [42]: 0.03 to 16 µg/mL (≈ 0.0656 to 35 µM)
MIC Range [43]: 0.015 to 16 µg/mL
MIC [44]: 0.05 to 8 µg/mL (≈ 0.109 to 17.5 µM)
ED50 [45]: > 32 mg/kg
